Test results taken from patent publication US7652067B2, “Aqueous compositions containing monoester salts” (Millenium Specialty Chemicals, Inc., priority 2006, dated 2010).

Columns and labels:
[1] = Solubilization of hydrophobic organic compound in aqueous sodium monomenthyl glutarate (Na-MMG); details: for concentration of hydrophobic compound in clear, homogeneous solution in aqueous Na-MMG: MMG neutralised with 8.8% aqueous sodium bicarbonate; for times better dissolved in aqueous Na-MMG than in pure water: aqueous Na-MMG vs pure water
Protocol: Aqueous sodium bicarbonate (98 g, 8.8% solution) is added over about 20 minutes to a stirred mixture of monomenthyl glutarate (“MMG,” 25 g) and dodecane (3.0 g). After the addition is complete and CO2 evolution stops, the mixture is stirred for 2 h and is then allowed to settle. The resulting mixture is a clear, homogeneous solution of dodecane (˜2.5%) in aqueous sodium monomenthyl glutarate (Na-MMG).
A clear aqueous solution of Na-MMG is obtained by reacting monomenthyl glutarate (25 g) with aqueous sodium bicarbonate (98 g of 8.8% solution). […] The mixture stirs for about 2 h and is allowed to cool to ambient temperature. […] Dilution with an equal volume of water produces a solution that remains clear for more than 40 days.
Aqueous sodium bicarbonate (196 g, 8.8% solution) is added to a stirred mixture of monomenthyl glutarate (50 g) and N-ethyl-p-menthane-3-carboxamide (“WS-3,” 2.0 g). After the addition is complete and CO2 evolution stops, the mixture is stirred for 1 h and is then allowed to sit overnight. The resulting mixture is a clear, homogeneous solution of WS-3 (˜0.83%) in aqueous Na-MMG.
More WS-3 (1.0 g) is added to the aqueous composition. The mixture stirs for 1 h and is allowed to stand overnight. The mixture is filtered to remove undissolved crystals (0.6 g).
Dilution with an equal volume of water produces a solution that remains clear for more than 40 days.

[2] = Organoleptic test of physiological cooling effect
Description: The resulting mixture is a clear, homogeneous solution of WS-3 (˜0.83%) in aqueous Na-MMG.

[3] = Control experiment: stirring hydrophobic compound with pure water; details: for control experiment with water: outcome: compound stirred with water without solubilizer
[4] = Dilution of the clear aqueous composition with an equal volume of water (clarity / emulsification); assay type: physicochemical; details: clear composition in aqueous Na-MMG diluted 1:1 with water
Protocol: It may be desirable to dilute the aqueous compositions with water. The amount of water that can be added while maintaining a clear aqueous solution depends on many factors known to those skilled in the art, including the nature of the hydrophobic organic compound, the particular monoester salt, the concentration of each of these components, and other factors. In general, the desirability of diluting the aqueous composition is determined empirically.

[5] = Solubilization of hydrophobic organic compound in aqueous sodium monooctyl glutarate (Na-MOG); assay type: physicochemical; details: MOG 22.6 g, procedure of Example 1
Description: The procedure of Example 1 is followed except that monooctyl glutarate (MOG, 22.6 g) and p-cymene (5 g) are used. The resulting mixture is a clear, homogeneous solution of p-cymene (˜4.4%) in aqueous sodium monooctyl glutarate (Na-MOG).

[6] = Solubilization of hydrophobic organic compound in aqueous sodium monomenthyl succinate (Na-MMS); assay type: physicochemical; details: MMS 23.7 g, procedure of Example 1
Description: The procedure of Example 1 is followed except that monomenthyl succinate (MMS, 23.7 g) and p-cymene (3 g) are used. The resulting mixture is a clear, homogeneous solution of p-cymene (˜2.5%) in aqueous sodium monomenthyl succinate (Na-MMS).

SMILES | concentration of hydrophobic compound in clear, homogeneous solution in aqueous Na-MMG [1] | time solution remains clear after dilution with an equal volume of water [4] | control experiment with water: outcome [3] | other results
CCNC(=O)[C@@H]1C[C@H](C)CC[C@H]1C(C)C [WS-3, N-ethyl-p-menthane-3-carboxamide] | ~0.83% |  |  | times better dissolved in aqueous Na-MMG than in pure water [1]: about 33 times; concentration of WS-3 in filtrate (aqueous Na-MMG) after removing undissolved crystals ([1]; more WS-3 added, stood overnight, filtered): ~1.0%; cooling effect when tested organoleptically ([2]; filtrate, ~1.0% WS-3 in aqueous Na-MMG): strong cooling effect; cooling effect when tested organoleptically ([2]; ~0.83% WS-3 in aqueous Na-MMG, pH 7.4): strong cooling effect; solubility in pure water ([3]; 20° C.): ~0.03%
CC(C)=CCCC(C)CCO (stereo not drawn) [citronellol] | ~3.6% | more than 40 days | fail to produce a homogeneous mixture | 
CC(C)=CCCC(C)CC#N (stereo not drawn) [citronellyl nitrile] | ~3.6% |  | fail to produce a homogeneous mixture | emulsification after dilution with an equal volume of water [4]: immediately produces an emulsion
C=C(C)[C@H]1CC=C(C)CC1 [d-limonene] |  |  | fails to produce a homogeneous mixture | 
CCCCCCCCCCCC [dodecane] | ~2.5% |  | fails to produce a homogeneous mixture | times better dissolved in aqueous Na-MMG than in pure water [1]: at least 50 times; emulsification after dilution with an equal volume of water [4]: emulsifies within two days; undissolved compound recovered after settling ([3]; 12 g stirred with 876 g water for 2 h): 11.6 g
C=C(C)[C@@H]1CC=C(C)C(=O)C1 [l-carvone] | ~3.6% | more than 40 days | fail to produce a homogeneous mixture | 
CC(C)[C@@H]1CC[C@@H](C)C[C@H]1O [l-menthol] | ~2.5% | more than 40 days | no homogeneous mixture results | times better dissolved in aqueous Na-MMG than in pure water [1]: at least 40 times; physiological cooling effect (organoleptic test) ([2]; ~2.5% l-menthol solution in aqueous Na-MMG): strong physiological cooling effect; menthol content of aqueous solution in pure water control (gas chromatography) ([3]; 12 g in 876 g water, 2 h, initially 47° C. then ambient, filtered): 0.06%
CC(C)[C@@H]1CC[C@@H](C)C[C@H]1OC(=O)[C@H](C)O [l-menthyl lactate] |  | more than 40 days | fail to produce a homogeneous mixture | 
C=CC(C)(O)CCC=C(C)C (stereo not drawn) [linalool] |  |  | fail to produce a homogeneous mixture | concentration of hydrophobic compound in clear, homogeneous solution in aqueous Na-MOG [5]: ~2.7%
Cc1ccc(C(C)C)cc1 [p-cymene] | ~3.6% |  | fail to produce a homogeneous mixture | concentration of hydrophobic compound in clear, homogeneous solution in aqueous Na-MMS [6]: ~2.5%; emulsification after dilution with an equal volume of water [4]: ≤ 2 days; concentration of hydrophobic compound in clear, homogeneous solution in aqueous Na-MOG [5]: ~4.4%
Cc1c(C)c2c(c(C)c1O)CCC(C)(CCCC(C)CCCC(C)CCCC(C)C)O2 (stereo not drawn) [α-tocopherol] |  | more than 40 days | fail to produce a homogeneous mixture | concentration of hydrophobic compound in clear, homogeneous solution in aqueous Na-MOG [5]: ~2.6%
